The structures appear in SMILES notation. Where two headings read alike, the source gives them in different places.

The target in assay [1] is TNF-α converting enzyme (TACE) (Homo sapiens, UniProt P78536). As to the kind of experiment: Test procedure for measuring TACE inhibition (fluorescent peptidyl substrate). The class given is biochemical.
A further assay has as its system THP-1 cells. As to the kind of experiment: Human monocytic THP-1 cell differentiation assay for soluble proteins (THP soluble protein assay), LPS-stimulated, TNF-α ELISA. The class given is cell-based. The note with it: for THP (% inhibition): Table 1, concentration not given; for inhibition at 3 µM: Homo sapiens, THP-1; at 3 uM; percent change from vehicle positive control; read-out: TNFalpha at 3 uM) THP (percent change). An excerpt: Mitogenic stimulation of THP-1 cells cause differentiation into macrophage like cells with concomitant secretion of tumor necrosis factor (TNF-a) and TNF receptor (TNF-R p75/80 and TNF-R p55/60) and Interleukin-8 (IL-8), among other proteins. In addition, non-stimulated THP-1 cells shed both the p75/80 and the p55/60 receptors over time. The release of membrane bound TNF-a and possibly TNF-R p75/80 and TNF-R p55/60, but not IL-8, is mediated by an enzyme called TNF-α converting enzyme or TACE.
THP-1 cells (from ATCC) are a human monocytic cell line which were obtained from the peripheral blood of a person with acute monocytic leukemia. They can be grown in culture and differentiated into macrophage like cells by stimulation with mitogens.
Each vial of cells are cultured for about two weeks prior to being used for an assay and then are used for only 4 to 6 weeks to screen compounds.
Cell exposure to DMSO was limited to 0.1 % final concentration. […] Compounds can be evaluated for their effect on basal (non-stimulated) shedding of the receptors by replacing the LPS with […] of THP-1 media. Plates are placed into an incubator set at 5% CO2 and at 37°C. After 4 hours of incubation, […] of tissue culture supernatant (TCS) is removed for use in an TNF-α ELISA. Following 24 hours of incubation, […] of TCS is removed and used for analysis in TNF-R p75/80, TNF-R p55/60 and IL-8 ELISAs.
In addition, at the 24 hours timepoint, and the cells for each treatment group are collected by resuspension in 500 µl/well of THP-1 media and transferred into a FACS tube. […] The samples are run on a Becton Dickinson FaxCaliber FLOW cytometry machine and the amount of dye taken up by each cell is measured in the high red wavelength (FL3). Only cells with compromised membranes (dead or dying) can take up PI. The percent of live cells is calculated by the number of cells not stained with PI, divided by the total number of cells in the sample. The viability values calculated for the drug treated groups were compared to the viability value calculated for the vehicle treated mitogen stimulated group ("vehicle positive control") to determine the "percent change from control". This "percent change from control" value is an indicator of drug toxicity.
The quantity of soluble TNF-α, TNF-R p75/80 and TNF-R p55/60 and IL-8 in the TCS of the THP-1 cell cultures are obtained with commercially available ELISAs from R&D Systems, by extrapolation from a standard curve generated with kit standards. The number of cells that either take up or exclude PI are measured by the FLOW cytometry machine and visualized by histograms using commercially available Cytologic software for each treatment group including all controls.
Biological variability in the magnitude of the response of THP-1 cell cultures requires that experiments be compared on the basis of percent change from "vehicle positive control" for each drug concentration. Percent change in each soluble protein evaluated from the "vehicle positive control" was calculated for each compound concentration with the following formula: % Change =(pg/ml (compound) - pg/ml (veh pos control))/(pg/ml (veh pos control) - pg/ml (veh neg control))x 100 [formula]
For the soluble protein (TNF-a, p75/80, p55/60, IL-8) studies under stimulated conditions, the mean pg/ml of duplicate wells were determined and the results expressed as percent change from "vehicle positive control". For the soluble protein (p75/80 and p55/60 receptors) studies under non-stimulated conditions, the mean pg/ml of duplicate wells were determined and the results expressed as percent change from […] utilizing the following formula: % Change =(pg/ml (compound neg control) - pg/ml (veh neg control))/(pg/ml (veh neg control))X 100 [formula]
IC50 values for each compound are calculated by non-linear regression analysis using customized software utilizing the JUMP statistical package.
In general terms: An ELISA detects its analyte on a solid surface through an enzyme-linked reagent.

For another assay, the target named is MMP-13 (Homo sapiens, UniProt P45452). As to the kind of experiment: MMP-13 inhibition (thiopeptide or fluorescent peptide substrate). Format: biochemical. The note with it: for inhibition at 10 µM: % @ 10µM per footnote a. An excerpt: Alternatively, a fluorescent peptide substrate is used.
The target in another assay is MMP-9 (Homo sapiens, UniProt P14780). As to the kind of experiment: MMP-9 inhibition (thiopeptide or fluorescent peptide substrate). The note with it: for inhibition at 10 µM: read-out: MMP9.
Chain of MMP-9 (P14780 94-707): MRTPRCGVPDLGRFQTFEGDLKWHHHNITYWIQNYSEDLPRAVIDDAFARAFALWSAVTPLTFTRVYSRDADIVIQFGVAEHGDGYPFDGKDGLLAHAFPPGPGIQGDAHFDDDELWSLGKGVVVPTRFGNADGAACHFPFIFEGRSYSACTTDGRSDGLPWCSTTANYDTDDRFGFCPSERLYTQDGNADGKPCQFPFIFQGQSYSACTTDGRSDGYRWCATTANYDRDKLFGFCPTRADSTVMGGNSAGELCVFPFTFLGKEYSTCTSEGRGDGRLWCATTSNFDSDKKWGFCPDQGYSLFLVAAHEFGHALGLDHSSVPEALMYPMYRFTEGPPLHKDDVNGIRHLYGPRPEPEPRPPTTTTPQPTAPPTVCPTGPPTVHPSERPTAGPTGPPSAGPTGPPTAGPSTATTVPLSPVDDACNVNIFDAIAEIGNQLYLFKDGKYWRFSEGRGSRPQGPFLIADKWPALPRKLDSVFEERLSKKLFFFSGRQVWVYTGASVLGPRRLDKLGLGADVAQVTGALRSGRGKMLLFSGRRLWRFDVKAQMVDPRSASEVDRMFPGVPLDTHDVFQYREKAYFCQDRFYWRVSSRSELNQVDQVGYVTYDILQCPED
The target of the next assay is T1, MMP-1 (Homo sapiens, UniProt P03956).
T1 sequence (P03956 100-469): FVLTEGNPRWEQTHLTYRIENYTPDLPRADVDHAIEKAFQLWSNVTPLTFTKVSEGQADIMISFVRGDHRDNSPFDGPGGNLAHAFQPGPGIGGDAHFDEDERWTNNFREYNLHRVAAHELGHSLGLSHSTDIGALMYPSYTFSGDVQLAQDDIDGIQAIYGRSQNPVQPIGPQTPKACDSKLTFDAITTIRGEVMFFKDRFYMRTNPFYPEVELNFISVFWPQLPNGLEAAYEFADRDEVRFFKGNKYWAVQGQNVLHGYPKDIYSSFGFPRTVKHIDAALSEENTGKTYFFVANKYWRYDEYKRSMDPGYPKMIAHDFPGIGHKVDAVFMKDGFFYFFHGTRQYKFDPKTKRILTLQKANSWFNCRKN
As to the kind of experiment: MMP-1 inhibition (thiopeptide or fluorescent peptide substrate). The note with it: for inhibition at 10 µM: read-out: MMP1.

Where [2] appears, read: second table, IC50 (nM) per footnote a.

Chain of TNF-α converting enzyme (TACE) (P78536 215-824): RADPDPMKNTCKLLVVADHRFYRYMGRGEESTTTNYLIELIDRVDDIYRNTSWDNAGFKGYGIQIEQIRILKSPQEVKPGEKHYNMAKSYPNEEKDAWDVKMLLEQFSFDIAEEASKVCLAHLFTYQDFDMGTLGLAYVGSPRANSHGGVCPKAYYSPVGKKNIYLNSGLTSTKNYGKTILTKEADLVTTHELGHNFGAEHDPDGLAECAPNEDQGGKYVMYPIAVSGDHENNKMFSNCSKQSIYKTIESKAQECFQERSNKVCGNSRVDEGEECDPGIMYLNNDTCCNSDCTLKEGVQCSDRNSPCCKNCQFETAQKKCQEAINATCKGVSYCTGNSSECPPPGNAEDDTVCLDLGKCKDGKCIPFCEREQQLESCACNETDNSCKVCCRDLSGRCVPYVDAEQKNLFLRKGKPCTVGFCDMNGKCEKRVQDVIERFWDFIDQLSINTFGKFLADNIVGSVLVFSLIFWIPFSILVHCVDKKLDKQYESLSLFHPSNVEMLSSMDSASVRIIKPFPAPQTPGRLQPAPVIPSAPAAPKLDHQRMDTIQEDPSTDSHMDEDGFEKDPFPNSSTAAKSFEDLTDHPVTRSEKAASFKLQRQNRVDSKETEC
Procedure for MMP-9: The enzyme activity is measured by the rate of the color increase. The thiopeptide substrate is made up fresh as a 20 mM stock in 100% DMSO and the DTNB is dissolved in 100% DMSO as a 100 mM stock and stored in the dark at room temperature. Both the substrate and DTNB are diluted together to 1 mM with substrate buffer (50 mM HEPES pH 7.5, 5 mM CaCl2) before use. The stock of enzyme is diluted with buffer (50 mM HEPES, pH 7.5, 5 mM CaCl2, 0.02% Brij) to the desired final concentration.
Alternatively, a fluorescent peptide substrate is used. In this test procedure, the peptide substrate contains a fluorescent group and a quenching group. Upon cleavage of the substrate by an MMP, the fluorescence that is generated is quantitated on the fluorescence plate reader. The assay is run in HCBC assay buffer (50mM HEPES, pH 7.0, 5 mM Ca^+2, 0.02% Brij, 0.5% Cysteine), with human recombinant MMP-1, MMP-9, or MMP-13. The substrate is dissolved in methanol and stored frozen in 1 mM aliquots. For the assay, substrate and enzymes are diluted in HCBC buffer to the desired concentrations. Compounds are added to the 96 well plate containing enzyme and the reaction is started by the addition of substrate.
For either the thiopeptide or fluorescent peptide test procedures, the slope of the line is calculated and represents the reaction rate. […] The mean (x±sem) of the control rate is calculated and compared for statistical significance (p<0.05) with drug-treated rates using Dunnett's multiple comparison test.

Consider `CC#CCOc1ccc(S(=O)(=O)C(C)(Cc2ccc(OCCN3CCCCC3)cc2)C(=O)NO)cc1` (centres unmarked) [Example 1, 2-(4-But-2-ynyloxy-benzenesulfonyl)-N-hydroxy-2-methyl-3-[4-(2-piperidin-1-yl-ethoxy)-phenyl]-propionamide], for which the IC50 is 191 nM in assay [1] (Table 1); 200 nM on MMP-13 (Table 1, read-out: MMP13 IC50); 180 nM against MMP-9; 2000 nM on MMP-1. In the assay with THP-1 cells, the “THP (% inhibition)” value was 25%.
Regarding `CC#CCOc1ccc(S(=O)(=O)C(C)(Cc2ccc(-c3ccccc3)cc2)C(=O)NO)cc1` (centres unmarked) [Example 2, 3-Biphenyl-4-yl-2-(4-But-2-ynyloxy-phenylsulfonyl)-N-hydroxy-2-methyl-propionamide], the IC50 was 207 nM in assay [1] (Table 1); 597 nM on MMP-13 (Table 1, read-out: MMP13 IC50); 207 nM at MMP-9; 2200 nM at MMP-1. Besides, in the assay on THP-1 cells, the “THP (% inhibition)” value was 5%.
`CC#CCOc1ccc(S(=O)(=O)C(C)(Cc2cccnc2)C(=O)NO)cc1` (centres unmarked) [Example 3, 2-(4-But-2-ynyloxy-phenylsulfonyl)-N-hydroxy-2-methyl-3-pyridin-3-ylpropionamide]: the IC50 in assay [1] (Table 1) came to 15.7 nM; at MMP-13 (Table 1, read-out: MMP13 IC50) it was 69 nM; against MMP-9 it was 142 nM; on MMP-1, 1400 nM. In addition, in the assay with THP-1 cells, the “THP (% inhibition)” value stood at 14%.
In the case of `CC#CCOc1ccc(SC(CCCCCC)C(=O)NO)cc1` (centres unmarked) [Example 6, 2-(4-But-2-ynyloxy-phenylsulfanyl)-octanoic acid hydroxamide], the IC50 in assay [1] (Table 1) is 105 nM; on MMP-13 (Table 1, read-out: MMP13 IC50), 2000 nM; at MMP-9 it was 3000 nM; against MMP-1, 15000 nM. The “THP (% inhibition)” value with THP-1 cells came to 5%.
Taken in the same sequence, the figures for `CC#CCOc1ccc([S@+]([O-])[C@@H](CCCCCC)C(=O)NO)cc1` [Example 7, (S)-2-[(R)-[4-(2-Butynyloxy)phenylsulfinyl)]-N-hydroxyoctanamide] were 4.3 nM, 900 nM, 1500 nM, 3000 nM and 67%.
For `CC#CCOc1ccc([S@@+]([O-])[C@@H](CCCCCC)C(=O)NO)cc1` [Example 8, (S)-2-[(S)-[4-(2-Butynyloxy)phenylsulfinyl)]-N-hydroxyoctanamide], in that order: 12.4 nM, 150 nM, 1000 nM, 3200 nM and 35%.
In the case of `CC#CCOc1ccc(S(=O)(=O)C(CCCCCC#N)C(=O)NO)cc1` (centres unmarked) [Example 72, 2-{[4-(2-butynyloxy)phenyl]sulfonyl}-7-cyano-N-hydroxy heptanamide], the IC50 was 14.2 nM in assay [1] (setting [2]); 341 nM on MMP-13 (IC50, read-out: MMP13); 1360 nM against MMP-9. Moreover, in the assay on THP-1 cells, the inhibition at 3 µM stood at 54%. In addition, the inhibition at 10 µM on MMP-1 was determined as 46.2%.
Consider `CC#CCOc1ccc([S+]([O-])C(C(=O)NO)C2CCCCC2)cc1` (centres unmarked) [Example 74, 2-{[4-(2-butynyloxy)phenyl]sulfinyl}-2-cyclohexyl-N-hydroxyacetamide], for which the IC50 came out at 52 nM in assay [1] (setting [2]); 93.5 nM at MMP-13 (IC50, read-out: MMP13); 336 nM against MMP-9; 1500 nM at MMP-1. Also, the inhibition at 3 µM in the assay with THP-1 cells turned out to be 31%.
For the molecule `CC#CCOc1ccc(S(=O)(=O)C(C(=O)NO)C2CCCCC2)cc1` (centres unmarked) [Example 75, 2-{[4-(2-butynyloxy)phenyl]sulfonyl}-2-cyclohexyl-N-hydroxyacetamide], the inhibition at 3 µM with THP-1 cells is 39%. For the same molecule, the IC50 on MMP-13 (IC50, read-out: MMP13) was found to be 708 nM. The inhibition at 10 µM came to 68.2% on MMP-9 and 34.6% on MMP-1.
For the molecule `CC#CCOc1ccc(SC(C(=O)NO)c2ccc(OC)cc2)cc1` (centres unmarked) [Example 76, 2-{[4-(2-butynyloxy)phenyl]sulfanyl}-N-hydroxy-2-(4-methoxyphenyl) acetamide], the inhibition at 3 µM with THP-1 cells is 15%. Besides, the inhibition at 10 µM on MMP-13 (read-out: MMP13) came to 26.8%; at MMP-9, 21.6%; on MMP-1, 3%.
In turn, `CC#CCOc1ccc(SC(C(=O)NO)c2ccc(Cl)cc2)cc1` (centres unmarked) [Example 80, 2-{[4-(2-butynyloxy)phenyl]sulfanyl}-2-(4-chlorophenyl)-N-hydroxyacetamide] returned an IC50 in assay [1] (setting [2]) of 102 nM. Further, the inhibition at 3 µM in the assay with THP-1 cells is 4%. Also, the inhibition at 10 µM on MMP-13 (read-out: MMP13) was determined as 48.8%; on MMP-9 it was 10.9%; on MMP-1, 0%.
For `CC#CCOc1ccc(S(=O)(=O)C(C(=O)NO)c2ccc(Cl)cc2)cc1` (centres unmarked) [Example 82, 2-{[4-(2-butynyloxy)phenyl]sulfonyl}-2-(4-chlorophenyl)-N-hydroxyacetamide], the IC50 amounted to 108 nM in assay [1] (setting [2]) and 5060 nM at MMP-13 (IC50, read-out: MMP13). For the same molecule, in the assay with THP-1 cells, the inhibition at 3 µM stood at 14%. Also, the inhibition at 10 µM at MMP-9 was determined as 38%; at MMP-1 it was 27.1%.
`CC#CCOc1ccc(SC(C(=O)NO)c2ccc(F)cc2)cc1` (centres unmarked) [Example 95]: in the assay on THP-1 cells, the inhibition at 3 µM is -7%. Further, the inhibition at 10 µM on MMP-13 (read-out: MMP13) worked out at 26%; on MMP-9, 5.7%; at MMP-1, 9%.
As for `CC#CCOc1ccc(S(=O)(=O)C(C(=O)NO)c2ccc(F)cc2)cc1` (centres unmarked) [Example 97, 2-{[4-(2-butynyloxy)phenyl]sulfonyl}-2-(4-fluorophenyl)-N-hydroxyacetamide], in assay [1] (setting [2]), the IC50 was determined as 109 nM. Besides, the inhibition at 3 µM in the assay on THP-1 cells is 10%. For the same molecule, the inhibition at 10 µM on MMP-13 (read-out: MMP13) stood at 47.4%; at MMP-9, 0.5%; at MMP-1 it was 0.5%.
In turn, `CC#CCOc1ccc(SC(C(=O)NO)C(C)C)cc1` (centres unmarked) [Example 107, 2-{[4-(2-Butynyloxy)phenyl]sulfanyl}-2-isopropyl-N-hydroxyacetamide] displayed an IC50 in assay [1] (setting [2]) of 157 nM. Further, the inhibition at 3 µM with THP-1 cells is -13%. In addition, the inhibition at 10 µM at MMP-13 (read-out: MMP13) turned out to be 59.4%; on MMP-9, 56.8%; at MMP-1 it was 2.8%.
In the case of `CC#CCOc1ccc(S(=O)(=O)C(C(=O)NO)C(C)C)cc1` (centres unmarked) [Example 110, 2-{[4-{2-butynyloxy)phenyl]sulfonyl}-2-isopropyl-N-hydroxyacetamide], the IC50 was 17 nM in assay [1] (setting [2]); 1260 nM at MMP-13 (IC50, read-out: MMP13); 5140 nM at MMP-9. For the same molecule, the inhibition at 3 µM in the assay with THP-1 cells was 25%. Moreover, the inhibition at 10 µM at MMP-1 came to 39.6%.

The record behind these values is patent EP1147080B1 (Wyeth Holdings Corporation, priority 1999, dated 2000).
